According to US20260224463A1, “COMPOSITIONS COMPRISING HYDROPHILIC ACTIVE INGREDIENTS IN OIL” (Lubrizol Advanced Materials, Inc., priority 2023, published 2026):

Experiments:
Log P of the peptides = assay type: physicochemical
[1] = Visual inspection of physical appearance of the compositions; assay type: physicochemical; conditions: peptide 0.125 wt. % at the optimal ingredient concentrations, in words
Method: The stability of the formulations was determined by visual inspection and by quantification of the amount of active ingredient by high performance liquid chromatography (HPLC).
Visual inspection: The results are classified as OK or KO according to the physical appearance. OK represents a transparent solution at t=0 h with small particles at the bottom after 24h. KO represents solutions completely separated into phases, turbid or with an unacceptable precipitate at the bottom.

logP (Log P of the peptides)	compatibility of the peptide with the composition [1]	Compound
-5.84	good compatibility	Ac-EEMQRRAD-NH2 [PEP-2, Ac-Glu-Glu-Met-Gln-Arg-Arg-Ala-Asp-NH2]
-3.38	good compatibility	H-FWMKRKRVP-NH2 [PEP-8, H-Phe-Trp-Met-Lys-Arg-Lys-Arg-Val-Pro-NH2]

Compound	logP (Log P of the peptides)	compatibility of the peptide with the composition [1]
CC(C)C[C@H](NC(=O)[C@H](Cc1ccccc1)NC(=O)CNC(=O)[C@@H](C)NC(=O)[C@@H](N)Cc1ccc(O)cc1)C(=O)O [PEP-9, H-Tyr-D-Ala-Gly-Phe-Leu-OH]	-1.02	good compatibility
